Converted amounts (≈) assume the structure as drawn.
Key:
Helicobapter pylori [1] = test: Minimal inhibiting concentration (agar dilution); type: cell-based
Procedure: Substances under examination: EU11100, EU11102, EU11103, EU11104. Comparison substance: Metronidazole Solubilization of the substances: All the substances to be studied are dissolved at room temperature in DMSO. […] 10 strains of Helicobapter pylori are used of recent clinical isolation […] The sowing of the bacteria, prepared as described in the preceding test is carried out by means a "multi-point inoculator". After 48 hours incubation under the condition described in the preceding test, the plates are examined and the Minimal Inhibiting Concentration is evaluated, namely that dose corresponding to growth absence.

Helicobapter pylori [2] = test: Inhibition halos of the bacterial growth (impregnated disks on agar); type: cell-based; conditions: for activity against the Helicobapter pylori strains used: 10 strains; for Inhibition halo (mm), Average: average of 10 strains
Procedure: Comparison substance: Metronidazole Solubilization of the substances : All the substances to be studied are dissolved at room temperature in DMSO.
Some commercially available antibiogram disks are so impregnated with the above mentioned compounds that each disk has concentration equal to 10, 1, 0.1, 0.01 µg.
10 strains of Helicobapter pylori are used of recent clinical isolation.
Columbia Blood Agar Base is used, containing 5% of defibrinated horse blood, 2 % of calf serum, 2 vials of Vitox per liter of medium and Vancomicine (10 µg/ml) Trimetoprim lactate(5 µg/ml) and Polimixin B (2.5 U/ml).
0.1 ml of a suspension of the different used strains are uniformly distributed onto Petri plates, containing 20 ml of Columbia Blood Agar base, obtained by taking a sample, by means of a platinum loop, of different colonies from a 48 hours culture, grown in anaerobiosis jars with "Gas Pack", without a catalyst and diluted into a physiological solution.
4 disks per plate, previously impregnated with the substances under examination, are then placed onto the agar layer of each plate.
After 48 hours of anaerobiosis incubation, as above described, the inhibition halos of the bacterial growth, produced by the different activity of the substances inside the agar, are evaluated.

Swiss female albino mice = test: Oral and intraperitoneal acute toxicity in mice (LD50, Probits method); type: in vivo; conditions: mice
Procedure: 20 Swiss female albino mice are used for this test of the average weight of 20 g (±2), coming from Nossan breeding .
Cages: in Makrolon® with saw dust litter, Number of animals per cage: 5 Acclimation period: 1 week Temperature: 22°C (± 2°C) Humidity : 60%, Diet: pellets for mice produced by Nossan firm, Water ad libitum Fast before the treatment: 16 hours
Oral by gastric route and intraperitoneal.
The substances to be studied: EU11100, EU11102, EU11103, EU11104 are treated with 0.5% carboxymethylcellulose in spring water, for the oral administration, whereas the same substances are intraperitoneally administered in the form of a physiological solution .
For each of the above mentioned substances, a mother suspension is prepared having a concentration in the active ingredient of 250 mg/ml for the oral administration, and analogously a mother suspension is prepared for the intraperitoneal administration having a concentration of the desired active principle of 100 mg/ml.
The following doses are used • a) oral route: 5000 mg/kg • b) intraperitoneal route : 2000 mg/kg
If mortality is observed at the above mentioned doses, other doses are administered in order to obtain a dose-response curve.
5 animals are used for every utilized concentration.
After the administration of the above substances the animals are kept under observation for 14 days , during which the mortality and the behaviour is observed.
LD₅₀ is determined on the base of the cumulative mortality observed in the successive 14 days after the administration by using the Probits method.

SMILES: Cc1ccc(C(C)(C)C)c(O)c1C(O)c1ncc([N+](=O)[O-])n1C (centres unmarked) [EU11104, 5-nitro-1-methyl-imidazolyl-3-terbutyl-2-hydroxy-6 methyl-phenyl-carbinol]
- MIC 50% (Helicobapter pylori [1]; 10 strains): 0.03 µg/mL (≈ 0.0939 µM)
- MIC 90% (Helicobapter pylori [1]; 10 strains): 0.06 µg/mL (≈ 0.188 µM)
- MIC range (Helicobapter pylori [1]; 10 strains): 0.015 to 0.016 µg/mL
- MIC values (Helicobapter pylori [1]; in words, compared with Metronidazole): very low MIC values
- M.I.C. (Helicobapter pylori [1]; strain 1): 0.12 µg/mL
- M.I.C. (Helicobapter pylori [1]; strain 2): 0.03 µg/mL
- M.I.C. (Helicobapter pylori [1]; strain 3): 0.06 µg/mL
- M.I.C. (Helicobapter pylori [1]; strain 4): 0.015 µg/mL
- M.I.C. (Helicobapter pylori [1]; strain 5): 0.03 µg/mL
- M.I.C. (Helicobapter pylori [1]; strain 6): 0.03 µg/mL
- M.I.C. (Helicobapter pylori [1]; strain 7): 0.06 µg/mL
- M.I.C. (Helicobapter pylori [1]; strain 8): 0.06 µg/mL
- M.I.C. (Helicobapter pylori [1]; strain 9): 0.06 µg/mL
- M.I.C. (Helicobapter pylori [1]; strain 10): 0.015 µg/mL
- activity against the Helicobapter pylori strains used (Helicobapter pylori [2]; 0.1 µg/disk): active against 4 out of 10 strains
- activity against the Helicobapter pylori strains used (Helicobapter pylori [2]; 1 µg/disk): active against all the Helicobapter pylori used
- activity against the Helicobapter pylori strains used (Helicobapter pylori [2]; disk test): active against all the Helicobapter pylori strains used
- Inhibition halo (mm), Average (Helicobapter pylori [2]; 1 µg/disk): 24.9 mm
- Inhibition halo (mm), Average (Helicobapter pylori [2]; 10 µg/disk): 31.5 mm
- Inhibition halo (mm) at the concentration (µg/disk) (Helicobapter pylori [2]; strain 1, 0.01 µg/disk): 0 mm
- Inhibition halo (mm) at the concentration (µg/disk) (Helicobapter pylori [2]; strain 1, 1 µg/disk): 27 mm
- Inhibition halo (mm) at the concentration (µg/disk) (Helicobapter pylori [2]; strain 1, 10 µg/disk): 33 mm
- Inhibition halo (mm) at the concentration (µg/disk) (Helicobapter pylori [2]; strain 2, 0.01 µg/disk): 0 mm
- Inhibition halo (mm) at the concentration (µg/disk) (Helicobapter pylori [2]; strain 2, 0.1 µg/disk): 0 mm
- Inhibition halo (mm) at the concentration (µg/disk) (Helicobapter pylori [2]; strain 2, 1 µg/disk): 22 mm
- Inhibition halo (mm) at the concentration (µg/disk) (Helicobapter pylori [2]; strain 2, 10 µg/disk): 30 mm
- Inhibition halo (mm) at the concentration (µg/disk) (Helicobapter pylori [2]; strain 3, 0.01 µg/disk): 0 mm
- Inhibition halo (mm) at the concentration (µg/disk) (Helicobapter pylori [2]; strain 3, 0.1 µg/disk): 0 mm
- Inhibition halo (mm) at the concentration (µg/disk) (Helicobapter pylori [2]; strain 3, 1 µg/disk): 22 mm
- Inhibition halo (mm) at the concentration (µg/disk) (Helicobapter pylori [2]; strain 3, 10 µg/disk): 28 mm
- Inhibition halo (mm) at the concentration (µg/disk) (Helicobapter pylori [2]; strain 4, 0.01 µg/disk): 0 mm
- Inhibition halo (mm) at the concentration (µg/disk) (Helicobapter pylori [2]; strain 4, 1 µg/disk): 30 mm
- Inhibition halo (mm) at the concentration (µg/disk) (Helicobapter pylori [2]; strain 4, 10 µg/disk): 36 mm
- Inhibition halo (mm) at the concentration (µg/disk) (Helicobapter pylori [2]; strain 5, 0.01 µg/disk): 0 mm
- Inhibition halo (mm) at the concentration (µg/disk) (Helicobapter pylori [2]; strain 5, 0.1 µg/disk): 0 mm
- Inhibition halo (mm) at the concentration (µg/disk) (Helicobapter pylori [2]; strain 5, 1 µg/disk): 22 mm
- Inhibition halo (mm) at the concentration (µg/disk) (Helicobapter pylori [2]; strain 5, 10 µg/disk): 28 mm
- Inhibition halo (mm) at the concentration (µg/disk) (Helicobapter pylori [2]; strain 6, 0.01 µg/disk): 0 mm
- Inhibition halo (mm) at the concentration (µg/disk) (Helicobapter pylori [2]; strain 6, 0.1 µg/disk): 14 mm
- Inhibition halo (mm) at the concentration (µg/disk) (Helicobapter pylori [2]; strain 6, 1 µg/disk): 29 mm
- Inhibition halo (mm) at the concentration (µg/disk) (Helicobapter pylori [2]; strain 6, 10 µg/disk): 35 mm
- Inhibition halo (mm) at the concentration (µg/disk) (Helicobapter pylori [2]; strain 7, 0.01 µg/disk): 0 mm
- Inhibition halo (mm) at the concentration (µg/disk) (Helicobapter pylori [2]; strain 7, 0.1 µg/disk): 0 mm
- Inhibition halo (mm) at the concentration (µg/disk) (Helicobapter pylori [2]; strain 7, 1 µg/disk): 22 mm
- Inhibition halo (mm) at the concentration (µg/disk) (Helicobapter pylori [2]; strain 7, 10 µg/disk): 26 mm
- Inhibition halo (mm) at the concentration (µg/disk) (Helicobapter pylori [2]; strain 8, 0.01 µg/disk): 0 mm
- Inhibition halo (mm) at the concentration (µg/disk) (Helicobapter pylori [2]; strain 8, 0.1 µg/disk): 17 mm
- Inhibition halo (mm) at the concentration (µg/disk) (Helicobapter pylori [2]; strain 8, 1 µg/disk): 31 mm
- Inhibition halo (mm) at the concentration (µg/disk) (Helicobapter pylori [2]; strain 8, 10 µg/disk): 37 mm
- Inhibition halo (mm) at the concentration (µg/disk) (Helicobapter pylori [2]; strain 9, 0.01 µg/disk): 0 mm
- Inhibition halo (mm) at the concentration (µg/disk) (Helicobapter pylori [2]; strain 9, 0.1 µg/disk): 0 mm
- Inhibition halo (mm) at the concentration (µg/disk) (Helicobapter pylori [2]; strain 9, 1 µg/disk): 21 mm
- Inhibition halo (mm) at the concentration (µg/disk) (Helicobapter pylori [2]; strain 9, 10 µg/disk): 30 mm
- Inhibition halo (mm) at the concentration (µg/disk) (Helicobapter pylori [2]; strain 10, 0.01 µg/disk): 0 mm
- Inhibition halo (mm) at the concentration (µg/disk) (Helicobapter pylori [2]; strain 10, 0.1 µg/disk): 0 mm
- Inhibition halo (mm) at the concentration (µg/disk) (Helicobapter pylori [2]; strain 10, 1 µg/disk): 23 mm
- Inhibition halo (mm) at the concentration (µg/disk) (Helicobapter pylori [2]; strain 10, 10 µg/disk): 32 mm
- toxicity when intraperitoneally administered (Swiss female albino mice; intraperitoneal, 2000 mg/kg): not toxic
- toxicity when orally administered (Swiss female albino mice; oral, 5000 mg/kg): not toxic

Source: patent publication EP0535528A1, “Antibacterial 5-Nitro-1-methyl-imidazolyl-3-terbutyl-2-hydroxy-aryl-carbinols” (EURORESEARCH S.r.L., priority 1991, dated 1993)
